# How the values were obtained:
# [1] = system: hemopoietic stem cells; experiment: Stem cell function: splenic 125I-UdR uptake 5 d after transfer into irradiated syngeneic recipients; type: in vivo, mice; settings: 250 micro-M
# Procedure: Bone marrow cells or marrow and spleen cell mixtures were incubated in PBS with or without 250 micro-M Leu-Leu-OMe as above and then infused into 950 cGy irradiated syngeneic recipients. 5 d later, splenic 5-iodo-2'-deoxyuridine-^125 I (^125 I-UdR) uptake was measured as previously described (15).
# To assay the effects of Leu-Leu-OMe on hemopoietic stem cells, we incubated marrow or mixtures of marrow and spleen cells in PBS with or without Leu-Leu-OMe and measured splenic ^125 I-UdR uptake 5 d after transplantation into irradiated syngeneic recipients (18). […] Since human marrow obtained for use in transplantation has variable amounts of peripheral blood contamination, we also studied the stem cell function of a mixture of murine spleen and marrow incubated with Leu-Leu-OMe. […] Histological studies were conducted of spleens from irradiated mice. B6 mice were irradiated with 950 cGy and given no marrow (irradiation control), or given syngeneic bone marrow cells that had been incubated in PBS with or without 250 micro-M Leu-Leu-OMe. 5 d later spleens were examined histologically. Irradiation control spleens were sparsely populated, with no hemopoietic elements. Recipients of marrow treated with 250 micro-M Leu-Leu-OMe had the vast majority of their splenic red pulp packed with erythroblasts, but also had numerous peritrabecular areas containing megakaryocytes and granulocytic elements.
# [2] = system: human umbilical vein endothelial cells; experiment: 51Cr release toxicity assay
# Procedure: In some experiments, toxicity of Leu-Leu-OMe for a variety of cell populations was assessed by ^51 Cr release In assays where cells obtained from suspension culture were to be used, cells were labeled with Na2^51 CrO4 (ICN, Plainview, N.Y.) for 60-90 minutes at 37° C. and then washed three times. Cells were then suspended in PBS (2.5×10^6 /ml) and incubated in microtiter plates, 50 microL/well with indicated concentrations of Leu-Leu-OMe for 15 minutes at room temperature. […] Following ^51 Cr labeling, wells were thoroughly washed and varying concentrations of Leu-Leu-OMe added in 50 microL PBS and the plates incubated for 15 minutes at room temperature.
# Following such initial serum-free incubations, 200 microL/well of medium RPMI containing 10% FBS were added and the plates incubated for another 4 hours prior to removal of 100 microliters of supernatant. Radioactivity in the supernatant was measured in an auto-gamma scintillation spectrometer (Packard Instrument Co., Downers Grove, Ill.). The percent specific release was calculated from the formula: [formula] in which maximal release refers to cpm obtained in wells containing 50% lysing agent (American Scientific Products, McGraw Park, Ill.) and spontaneous release refers to cpm released by cells incubated in control medium in the absence of Leu-Leu-OMe or the lysing agent.
# [3] = biological target: dipeptidyl peptidase I (DPPI) (Bos taurus, UniProt Q3ZCJ8); experiment: Dipeptidyl peptidase I catalyzed lysis of human RBC; type: cell-based, bovine; settings: FIG. 12, FIG. 13
# dipeptidyl peptidase I (DPPI), sequence (Q3ZCJ8 231-394 limits assumed): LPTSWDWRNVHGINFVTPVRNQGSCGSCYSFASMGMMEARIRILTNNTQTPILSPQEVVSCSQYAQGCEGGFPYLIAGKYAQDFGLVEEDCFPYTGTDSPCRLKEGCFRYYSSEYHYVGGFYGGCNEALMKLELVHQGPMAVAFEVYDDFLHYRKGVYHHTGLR
# dipeptidyl peptidase I (DPPI), sequence (Q3ZCJ8 25-134 limits assumed): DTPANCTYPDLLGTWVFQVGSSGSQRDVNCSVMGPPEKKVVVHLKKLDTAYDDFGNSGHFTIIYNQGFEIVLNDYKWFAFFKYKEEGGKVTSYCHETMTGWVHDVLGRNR
# dipeptidyl peptidase I (DPPI), sequence (Q3ZCJ8 395-463 limits assumed): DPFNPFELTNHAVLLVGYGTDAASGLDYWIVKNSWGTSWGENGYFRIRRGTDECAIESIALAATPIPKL
# Procedure: The following experiments were carried out to determine whether DPPI could generate a lytic product from Leu-Leu-OMe. In the experiment detailed in FIG. 12, ^51 Cr-labeled human erythrocytes (RBC) were incubated with varying concentrations of Leu-Leu-OMe alone or in the presence of purified bovine DPPI.
# In the experiments detailed in FIG. 13, ^51 Cr-labeled RBC's were exposed to various dipeptide esters or amides in the presence or absence of purified DPPI. […] The first observation is probably related to the inability of this enzyme to catalyze transpeptidation of peptide esters containing D-stereoisomers of amino acids. The latter observations are likely to be related to the fact that polymers of Ser-Leu or Leu-Tyr are not hydrophobic and therefore unlikely to enter and disrupt cell membranes.
# [4] = system: CTL precursors; experiment: Elimination of cytotoxic T lymphocytes (6 day MLC, lysis of allogeneic stimulator lymphoblasts); type: cell-based, human
# Procedure: Experiments were also designed to assess the relative sensitivity of NK and CTL to Leu-Leu-OMe. In the studies detailed in FIGS. 8 and 9, cytotoxicity assays were performed over a broad range of E:T ratios and units of lytic activity arising from equal numbers of responding lymphocytes were calculated and compared. […] Only after exposure to greater than 250 micromolar Leu-Leu-OMe were all CTL precursors eliminated.
# Non-adherent lymphocytes (2.5×10^6 /ml) were incubated with the indicated concentrations of Leu-Leu-OMe for 15 minutes. Cells were then washed and either placed in mixed lymphocyte culture or assayed for specific lysis of K562 cells (NK). After 6 day MLC, cells were assayed for specific lysis of allogeneic stimulator lymphoblasts (CTL) or K562 (AcNK). Data are expressed as percent of control lytic units (mean+SEM, n=6).
# Both values were also higher than the mean concentration of Leu-Leu-OMe required to diminish spontaneous NK lytic activity by 75% (35 micromolar±4 micromolar). […] Thus, only after MLC activation did CTL display a sensitivity to Leu-Leu-OMe toxicity that was equal to that of NK cells.
# [5] = system: peripheral blood lymphocytes (PBL); experiment: [3H]Leu-Leu-OMe uptake/binding by lymphocytes; type: in vitro ADME, human
# Procedure: Human peripheral blood lymphocytes (PBL) were incubated in the presence of [^3 H]labeled Leu-Leu-OMe at 22° C. for varying lengths of time. The incubation mixture was then centrifuged through silicone oil to separate the cells from any unbound or non-internalized [^3 HLeu-Leu-OMe. […] At 37° C., levels of [^3 H]Leu-Leu-OMe accumulation by PBL were increased above those seen at 22° C. (see Table 4).
smiles,measurement,setting,value
"COC(=O)[C@H](CC(C)C)NC(=O)[C@@H](N)CC(C)C [Leu-Leu-OMe, L-leucyl-L-leucine methyl ester]","effect on stem cell function, in words",[1],had no deleterious effect on this measure of stem cell function
same,51Cr release,[2],no significant Leu-Leu-OMe induced ^51 Cr release
same,subsequent proliferative capacity,[2]; 500 micromolar,had no discernible effect on subsequent proliferative capacity
same,Leu--Leu--OMe Sensitivity (LD50),[2]; Endothelial Cells,> 500 micro-M
same,"RBC lysis in the presence of purified DPPI, in words",[3],RBC lysis occurs
same,"CTL precursors still present, of control levels","[4]; 100 micromolar, 15 minutes (FIG. 8)",greater than 50%
same,concentration above which all CTL precursors eliminated,[4]; 15 minutes (FIG. 8),greater than 250 micromolar
same,sensitivity of CTL and AcNK following activation,"[4]; after 6 day MLC, 15 minutes incubation (FIG. 9)",became identical in sensitivity to Leu-Leu-OMe
same,mean concentration required to diminish lytic activity by 75%,[4]; elimination of CTL precursors,123 ± 25 µM
same,Km,[5]; 15 minute incubation at 22° C.,~100 µM
same,Vmax of uptake,[5]; 15 minute incubation at 22° C.,approximately 10^-10 moles/minute/10^6 cells
same,external concentration of near maximal uptake,[5]; 15 minute incubation at 22° C. (FIG. 11),250-500 micro-M
